Test results from ChEMBL document CHEMBL4325829, “Design and Synthesis of Tubulin and Histone Deacetylase Inhibitor Based on iso-Combretastatin A-4” (J Med Chem, 2018).
≈ marks a conversion by molar mass, not a printed value. Calls of active or inactive are those of the source. The calls are words filed in the database; no cut-off is given here.

Legend:
[1] = biological target: Polyamine deacetylase HDAC10 (Homo sapiens) (UniProt Q969S8); experiment: Inhibition of human recombinant HDAC10 at 10^-5 M after 45 mins using fluorogenic substrate by fluorimetric assay relative to control
[2] = biological target: Histone deacetylase 4 (Homo sapiens) (UniProt P56524); experiment: Inhibition of human recombinant HDAC4 at 10^-5 M after 30 mins using fluorogenic substrate by fluorimetric assay relative to control
[3] = system: HCT-116; experiment: Antiproliferative activity against human HCT116 cells after 72 hrs by MTS assay; type: functional; details: Homo sapiens, HCT-116, 72 h
[4] = system: U-87 MG; experiment: Antiproliferative activity against human U87 cells after 72 hrs by MTS assay; type: functional, U-87MG ATCC; details: Homo sapiens, U-87 MG, 72 h
[5] = Induction of apoptosis in human BL2 cells assessed as late apoptotic cells at 10 nM after 48 hrs by annexin V-FITC/propidium iodide double staining-based flow cytometry (reference value: 2.1%); type: functional
[6] = system: K562; experiment: Antiproliferative activity against human K562 cells after 72 hrs by MTS assay; type: functional; details: Homo sapiens, K562, 72 h
[7] = biological target: Histone deacetylase 1 (Homo sapiens) (UniProt Q13547); experiment: Inhibition of human recombinant HDAC1 at 10^-5 M after 15 mins using fluorogenic substrate by fluorimetric assay relative to control
[8] = system: A549; experiment: Antiproliferative activity against human A549 cells after 72 hrs by MTS assay; type: functional; details: Homo sapiens, A549, 72 h
[9] = system: MIA PaCa-2; experiment: Antiproliferative activity against human MIAPaCa2 cells after 72 hrs by MTS assay; type: functional; details: Homo sapiens, MIA PaCa-2, 72 h
[10] = biological target: Histone deacetylase 11 (Homo sapiens) (UniProt Q96DB2); experiment: Inhibition of human recombinant HDAC11 at 10^-5 M after 45 mins using fluorogenic substrate by fluorimetric assay relative to control
[11] = Inhibition of sheep brain tubulin polymerization assessed as reduction in rate of microtubule assembly by DAPI-fluorescence based assay; parameters: species or system Ovis aries
[12] = biological target: Histone deacetylase 5 (Homo sapiens) (UniProt Q9UQL6); experiment: Inhibition of human recombinant HDAC5 at 10^-5 M after 30 mins using fluorogenic substrate by fluorimetric assay relative to control
[13] = biological target: T1, Histone deacetylase 11 (Homo sapiens, UniProt Q96DB2); experiment: Inhibition of human recombinant HDAC11 after 30 mins using fluorogenic substrate by fluorimetric assay
T1 sequence (Q96DB2 whole entry): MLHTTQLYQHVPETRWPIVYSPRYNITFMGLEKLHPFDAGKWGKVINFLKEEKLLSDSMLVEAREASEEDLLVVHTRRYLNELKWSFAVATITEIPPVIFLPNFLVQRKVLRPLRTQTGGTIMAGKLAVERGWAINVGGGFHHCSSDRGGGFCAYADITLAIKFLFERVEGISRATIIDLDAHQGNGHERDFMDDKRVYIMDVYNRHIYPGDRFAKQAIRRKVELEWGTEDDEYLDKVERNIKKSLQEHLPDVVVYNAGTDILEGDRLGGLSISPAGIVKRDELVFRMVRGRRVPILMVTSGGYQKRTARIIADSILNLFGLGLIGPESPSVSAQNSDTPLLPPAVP

[14] = biological target: Histone deacetylase 3 (Homo sapiens) (UniProt O15379); experiment: Inhibition of human recombinant HDAC3 at 10^-5 M after 10 mins using fluorogenic substrate by fluorimetric assay relative to control
[15] = Induction of apoptosis in human BL2 cells assessed as early apoptotic cells at 10 nM after 48 hrs by annexin V-FITC/propidium iodide double staining-based flow cytometry (reference value: 8.2%); type: functional
[16] = biological target: Histone deacetylase 2 (Homo sapiens) (UniProt Q92769); experiment: Inhibition of human recombinant HDAC2 at 10^-5 M after 15 mins using fluorogenic substrate by fluorimetric assay relative to control
[17] = biological target: Histone deacetylase 9 (Homo sapiens) (UniProt Q9UKV0); experiment: Inhibition of human recombinant HDAC9 at 10^-5 M after 30 mins using fluorogenic substrate by fluorimetric assay relative to control
[18] = Aqueous solubility of the compound; type: physicochemical; details: water
[19] = system: BXPC-3; experiment: Antiproliferative activity against human BxPC3 cells after 72 hrs by MTS assay; type: functional; details: Homo sapiens, BXPC-3, 72 h
[20] = system: K-562R; experiment: Antiproliferative activity against human K562R cells after 72 hrs by MTS assay; type: functional; details: Homo sapiens, K-562R, 72 h
[21] = biological target: T2, Histone deacetylase 8 (Homo sapiens) (UniProt Q9BY41); experiment: Inhibition of human recombinant HDAC8 at 10^-5 M after 60 mins using fluorogenic substrate by fluorimetric assay relative to control
T2 sequence (whole entry): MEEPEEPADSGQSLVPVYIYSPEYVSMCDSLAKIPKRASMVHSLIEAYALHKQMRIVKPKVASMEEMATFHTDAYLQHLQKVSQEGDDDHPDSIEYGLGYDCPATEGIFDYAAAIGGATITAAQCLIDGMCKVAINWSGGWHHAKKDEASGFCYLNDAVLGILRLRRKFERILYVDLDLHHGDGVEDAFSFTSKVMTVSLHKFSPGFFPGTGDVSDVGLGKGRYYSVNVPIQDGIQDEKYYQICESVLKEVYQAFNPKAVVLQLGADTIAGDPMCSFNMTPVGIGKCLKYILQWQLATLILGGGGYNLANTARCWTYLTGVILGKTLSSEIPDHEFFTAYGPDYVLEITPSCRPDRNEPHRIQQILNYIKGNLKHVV

[22] = system: PC-3; experiment: Antiproliferative activity against human PC3 cells after 72 hrs by MTS assay; type: functional; details: Homo sapiens, PC-3, 72 h
[23] = Lipophilicity, log P of the compound; type: physicochemical; details: octanol/water
[24] = system: MCF7; experiment: Antiproliferative activity against human MCF7 cells after 72 hrs by MTS assay; type: functional; details: Homo sapiens, MCF7, 72 h
[25] = system: PBL; experiment: Cytotoxicity against human PBL cells assessed as cell growth inhibition after 72 hrs by MTS assay; type: ADME, cell-based

Sequence of Histone deacetylase 9 (Homo sapiens) (Q9UKV0 whole entry): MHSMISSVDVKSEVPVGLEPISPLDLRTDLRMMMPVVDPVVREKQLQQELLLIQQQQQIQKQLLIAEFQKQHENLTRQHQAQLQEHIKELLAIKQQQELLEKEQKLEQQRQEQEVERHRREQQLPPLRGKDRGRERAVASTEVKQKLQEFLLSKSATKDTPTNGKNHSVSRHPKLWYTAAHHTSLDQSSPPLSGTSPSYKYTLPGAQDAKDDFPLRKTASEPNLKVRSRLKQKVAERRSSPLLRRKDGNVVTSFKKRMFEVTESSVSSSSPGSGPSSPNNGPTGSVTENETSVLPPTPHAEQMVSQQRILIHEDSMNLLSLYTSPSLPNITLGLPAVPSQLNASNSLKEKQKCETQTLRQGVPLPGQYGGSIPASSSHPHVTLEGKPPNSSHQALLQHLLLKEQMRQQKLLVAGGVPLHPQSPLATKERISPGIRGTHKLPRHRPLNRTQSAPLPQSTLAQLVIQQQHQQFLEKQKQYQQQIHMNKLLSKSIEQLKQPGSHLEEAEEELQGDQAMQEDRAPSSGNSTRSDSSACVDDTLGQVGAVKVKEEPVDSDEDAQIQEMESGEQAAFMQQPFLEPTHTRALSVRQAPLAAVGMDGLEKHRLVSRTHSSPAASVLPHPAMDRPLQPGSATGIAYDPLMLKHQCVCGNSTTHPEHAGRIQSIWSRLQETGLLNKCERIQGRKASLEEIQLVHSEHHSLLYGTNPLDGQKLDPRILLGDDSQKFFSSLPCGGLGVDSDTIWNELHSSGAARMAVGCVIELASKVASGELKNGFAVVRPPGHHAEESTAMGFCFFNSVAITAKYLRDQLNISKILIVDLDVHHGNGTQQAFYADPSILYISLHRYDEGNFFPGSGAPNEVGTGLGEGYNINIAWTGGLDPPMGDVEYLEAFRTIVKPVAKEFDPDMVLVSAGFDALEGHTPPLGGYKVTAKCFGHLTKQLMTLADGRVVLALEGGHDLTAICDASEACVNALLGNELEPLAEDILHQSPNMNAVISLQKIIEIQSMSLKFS
Sequence of Histone deacetylase 1 (Homo sapiens) (Q13547 whole entry): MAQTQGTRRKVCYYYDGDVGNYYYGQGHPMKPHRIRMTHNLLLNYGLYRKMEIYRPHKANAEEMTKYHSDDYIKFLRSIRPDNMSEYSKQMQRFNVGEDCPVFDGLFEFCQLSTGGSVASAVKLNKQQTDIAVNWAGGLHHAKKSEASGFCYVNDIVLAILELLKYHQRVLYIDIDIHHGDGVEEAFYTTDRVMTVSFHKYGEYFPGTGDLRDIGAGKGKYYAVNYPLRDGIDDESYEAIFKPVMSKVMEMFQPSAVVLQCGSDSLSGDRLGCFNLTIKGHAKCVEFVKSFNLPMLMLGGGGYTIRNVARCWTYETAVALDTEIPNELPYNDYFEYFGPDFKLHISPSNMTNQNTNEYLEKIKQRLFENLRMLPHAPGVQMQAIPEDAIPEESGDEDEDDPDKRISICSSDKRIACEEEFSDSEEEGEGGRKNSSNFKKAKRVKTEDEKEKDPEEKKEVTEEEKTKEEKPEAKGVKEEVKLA
Sequence of Polyamine deacetylase HDAC10 (Homo sapiens) (Q969S8 whole entry): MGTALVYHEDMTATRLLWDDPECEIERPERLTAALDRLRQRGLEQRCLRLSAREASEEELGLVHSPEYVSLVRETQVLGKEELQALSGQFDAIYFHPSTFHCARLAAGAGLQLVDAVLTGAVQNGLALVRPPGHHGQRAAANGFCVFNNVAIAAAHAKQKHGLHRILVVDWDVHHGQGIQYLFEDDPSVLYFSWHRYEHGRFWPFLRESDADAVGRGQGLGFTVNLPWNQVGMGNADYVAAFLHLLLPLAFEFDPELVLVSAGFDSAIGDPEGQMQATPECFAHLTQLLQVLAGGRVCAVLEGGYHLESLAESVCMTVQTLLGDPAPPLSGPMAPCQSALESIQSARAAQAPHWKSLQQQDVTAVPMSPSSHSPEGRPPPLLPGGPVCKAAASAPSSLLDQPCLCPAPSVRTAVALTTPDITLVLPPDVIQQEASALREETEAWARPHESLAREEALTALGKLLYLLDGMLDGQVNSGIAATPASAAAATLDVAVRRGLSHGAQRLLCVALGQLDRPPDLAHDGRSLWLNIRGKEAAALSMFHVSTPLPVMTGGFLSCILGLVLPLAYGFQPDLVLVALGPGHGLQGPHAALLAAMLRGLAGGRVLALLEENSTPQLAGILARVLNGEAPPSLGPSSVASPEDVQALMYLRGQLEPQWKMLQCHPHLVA
Sequence of Histone deacetylase 2 (Homo sapiens) (Q92769 whole entry): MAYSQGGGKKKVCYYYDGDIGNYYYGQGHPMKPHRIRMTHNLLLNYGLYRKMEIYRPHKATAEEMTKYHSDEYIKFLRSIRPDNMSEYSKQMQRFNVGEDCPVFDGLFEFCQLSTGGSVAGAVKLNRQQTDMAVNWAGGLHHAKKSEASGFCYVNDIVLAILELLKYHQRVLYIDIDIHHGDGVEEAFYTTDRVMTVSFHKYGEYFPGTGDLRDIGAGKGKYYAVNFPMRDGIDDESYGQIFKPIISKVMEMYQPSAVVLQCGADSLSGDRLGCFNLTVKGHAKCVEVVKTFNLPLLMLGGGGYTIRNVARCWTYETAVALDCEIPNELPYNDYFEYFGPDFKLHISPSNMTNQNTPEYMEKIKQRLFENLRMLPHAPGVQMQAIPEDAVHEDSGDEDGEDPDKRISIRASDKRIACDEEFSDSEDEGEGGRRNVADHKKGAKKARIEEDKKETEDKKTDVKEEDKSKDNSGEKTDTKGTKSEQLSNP
Sequence of Histone deacetylase 3 (Homo sapiens) (O15379 whole entry): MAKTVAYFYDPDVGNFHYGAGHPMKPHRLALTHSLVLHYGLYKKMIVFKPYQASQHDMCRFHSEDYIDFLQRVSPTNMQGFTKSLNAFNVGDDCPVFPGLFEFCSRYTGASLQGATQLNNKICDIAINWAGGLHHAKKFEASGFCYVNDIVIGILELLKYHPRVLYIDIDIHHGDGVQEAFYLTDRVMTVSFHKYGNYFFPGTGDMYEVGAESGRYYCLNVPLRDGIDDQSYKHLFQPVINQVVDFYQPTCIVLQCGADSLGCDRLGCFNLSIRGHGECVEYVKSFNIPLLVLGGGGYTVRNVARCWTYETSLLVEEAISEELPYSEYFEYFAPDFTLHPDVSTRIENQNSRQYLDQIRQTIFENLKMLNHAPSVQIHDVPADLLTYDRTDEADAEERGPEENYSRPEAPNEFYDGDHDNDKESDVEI
Sequence of Histone deacetylase 5 (Homo sapiens) (Q9UQL6 whole entry): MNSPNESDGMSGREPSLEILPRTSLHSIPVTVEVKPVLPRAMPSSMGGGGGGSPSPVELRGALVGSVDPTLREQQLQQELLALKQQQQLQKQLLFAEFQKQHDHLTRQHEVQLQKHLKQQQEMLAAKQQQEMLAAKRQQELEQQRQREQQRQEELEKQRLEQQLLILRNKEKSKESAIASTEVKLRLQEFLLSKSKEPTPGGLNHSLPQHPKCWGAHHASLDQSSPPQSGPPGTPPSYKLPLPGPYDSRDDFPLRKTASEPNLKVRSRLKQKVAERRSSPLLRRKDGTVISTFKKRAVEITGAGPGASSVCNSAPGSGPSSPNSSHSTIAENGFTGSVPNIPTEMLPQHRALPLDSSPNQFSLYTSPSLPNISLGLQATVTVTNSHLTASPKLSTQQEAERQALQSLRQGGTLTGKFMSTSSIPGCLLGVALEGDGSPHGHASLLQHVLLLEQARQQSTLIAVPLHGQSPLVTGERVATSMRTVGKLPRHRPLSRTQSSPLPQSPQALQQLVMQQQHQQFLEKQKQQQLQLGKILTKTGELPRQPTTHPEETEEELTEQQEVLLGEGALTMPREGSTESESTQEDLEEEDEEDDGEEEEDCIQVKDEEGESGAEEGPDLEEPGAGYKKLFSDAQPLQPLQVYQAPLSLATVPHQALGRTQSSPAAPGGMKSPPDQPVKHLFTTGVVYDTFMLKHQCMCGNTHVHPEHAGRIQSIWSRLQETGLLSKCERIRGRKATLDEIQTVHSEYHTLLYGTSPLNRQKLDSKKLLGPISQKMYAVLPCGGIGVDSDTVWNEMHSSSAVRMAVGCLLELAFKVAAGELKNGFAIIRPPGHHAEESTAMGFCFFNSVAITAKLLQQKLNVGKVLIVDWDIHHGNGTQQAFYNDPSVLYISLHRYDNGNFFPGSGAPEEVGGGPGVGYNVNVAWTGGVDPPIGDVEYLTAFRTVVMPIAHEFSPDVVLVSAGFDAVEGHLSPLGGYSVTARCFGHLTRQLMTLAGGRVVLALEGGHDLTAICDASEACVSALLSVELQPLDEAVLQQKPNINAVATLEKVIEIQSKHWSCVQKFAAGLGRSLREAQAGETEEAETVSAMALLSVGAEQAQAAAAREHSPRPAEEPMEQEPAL

SMILES	inhibition [1]	inhibition [2]	GI50 [3] [nM]	GI50 [4] [nM]	Activity [5] [%]	GI50 [6] [nM]	inhibition [7]	GI50 [8] [nM]	GI50 [9] [nM]	inhibition [10]	IC50 [11] [nM]	inhibition [12]	inhibition [14]	Activity [15] [%]	inhibition [16]	inhibition [17]	solubility [18] [µg/mL]	GI50 [19] [nM]	GI50 [20] [nM]	inhibition [21]	also measured
C=C(c1ccc(OC)c(/C=C/C(=O)NO)c1)c1cc(OC)c(OC)c(OC)c1	< 50%	< 50%	1.5	1.6	13.7	1.6	< 50%	1.7	5.1	60%	1600	< 50%	< 50%	82.1	< 50%	< 50%	69.3 (≈ 180 µM)	2.9	1.4	95%	IC50 ([13]; read-out: IC50): 10000 nM; GI50 [22]: 0.4 nM; logP ([23]; read-out: logP): 2.93; GI50 [24]: 2 nM; IC50 [25]: 7000 nM
C=C(c1ccc(OC)c(O)c1)c1cc(OC)c(OC)c(OC)c1	inactive	inactive	2	8	14.3	5.2	inactive	10	10	inactive	2000	inactive	inactive	81.7	inactive	inactive	11.6 (≈ 36.7 µM)	20	2.2	inactive	IC50 [13]: Not Active; GI50 [22]: 3 nM; logP [23]: 2.16; GI50 [24]: 8 nM; IC50 [25]: 1700 nM
